Assay results reported in patent US10098350B2, “Fungicidal amides” (E. I. DU PONT DE NEMOURS AND COMPANY, priority 2013, dated 2018).

Key:
Assay type in all cases: in vivo
[1] = tested on: Erysiphe graminis f. sp. tritici; assay: Test E: wheat seedlings sprayed with test suspension, inoculated with Erysiphe graminis f. sp. tritici (wheat powdery mildew), visual disease rating
Excerpt: (§1) General protocol for preparing test suspensions for Tests A-E: the test compounds were first dissolved in acetone in an amount equal to 3% of the final volume and then suspended at the desired concentration (in ppm) in acetone and purified water (50/50 mix by volume) containing 250 ppm of the surfactant Trem® 014 (polyhydric alcohol esters). The resulting test suspensions were then used in Tests A-E. Samples were applied to plants at either a 10 ppm (**), 40 ppm, 50 ppm (*) or 200 ppm (#) test solution to the point of run-off on the test plants with the equivalent of a rate of 40 g ai/ha, 160 g ai/ha, 200 g ai/ha, or 800 g ai/ha, respectively.
The test suspension was sprayed to the point of run-off on wheat seedlings. The following day the seedlings were inoculated with a spore dust of Erysiphe graminis f. sp. tritici, (the causal agent of wheat powdery mildew) and incubated in a growth chamber at 20° C. for 7 or 8 days, after which time visual disease ratings were made.
(§2) Results for Tests A-E are given in Table A. In the Table, a rating of 100 indicates 100% disease control and a rating of 0 indicates no disease control (relative to the controls). A dash (-) indicates no test results.

[2] = tested on: Puccinia recondite f. sp. tritici; assay: Test D: wheat seedlings sprayed with test suspension, inoculated with Puccinia recondite f. sp. tritici (wheat leaf rust), visual disease rating
Excerpt: as §1
(§3) The test suspension was sprayed to the point of run-off on wheat seedlings. The following day the seedlings were inoculated with a spore suspension of Puccinia recondite f. sp. tritici; (the causal agent of wheat leaf rust) and incubated in a saturated atmosphere at 20° C. for 24 h, and then moved to a growth chamber at 20° C. for 6 days, after which time visual disease ratings were made.
as §2

[3] = tested on: Stagonospora nodorum (also known as Septoria nodorum); assay: Test B: wheat seedlings sprayed with test suspension, inoculated with Stagonospora nodorum (wheat glume blotch), visual disease rating
Excerpt: as §1
as §3, with “Stagonospora nodorum (also known as Septoria nodorum; the” for “Puccinia recondite f. sp. tritici; (the”, “glume blotch)” for “leaf rust)”, “48” for “24”
as §2

[4] = tested on: Septoria tritici; assay: Test C: wheat seedlings sprayed with test suspension, inoculated with Septoria tritici (wheat leaf blotch), visual disease rating
Excerpt: as §1
The test suspension was sprayed to the point of run-off on wheat seedlings. The following day the seedlings were inoculated with a spore suspension of Septoria tritici (the causal agent of wheat leaf blotch) and incubated in a saturated atmosphere at 24° C. for 48 h, and then moved to a growth chamber at 20° C. for 21 days, after which time visual disease ratings were made.
as §2

[5] = Cmpd. No. unmarked, 100 = 100% disease control, 0 = no control relative to controls
[6] = Cmpd. No. marked '*' (other test rate; meaning of mark not shown)
[7] = Cmpd. No. marked '**' (other test rate; meaning of mark not shown)

| Compound | Test E rating (% disease control) [1, 5] | Test D rating (% disease control) [2, 5] | Test B rating (% disease control) [3, 5] | Test C rating (% disease control) [4, 5] | also measured |
| --- | --- | --- | --- | --- | --- |
| Cn1nc(C(F)F)c(C(=O)N(Cc2ccc(-n3ccc(C(F)(F)F)n3)cc2OCC#N)C2CC2)c1F [compound 61] | 21% | 9% | 0% | 90% |  |
| C#CCOc1cc(-n2ccc(C(F)(F)F)n2)ccc1CN(C(=O)c1c(C(F)F)nn(C)c1F)C1CC1 [compound 62] | 94% | 99% | 99% | 99% |  |
| Cn1nc(C(F)F)c(C(=O)N(Cc2ccc(-n3nccn3)cc2Cl)C2CC2)c1F [compound 64] | 97% | 100% | 100% | 98% |  |
| Cc1ncn(-c2ccc(CN(C(=O)c3c(C(F)F)nn(C)c3F)C3CC3)c(Cl)c2)n1 [compound 65] | 0% | 0% | 87% | 98% |  |
| Cn1nc(C(F)F)c(C(=O)N(Cc2ccc(-n3ccnn3)cc2Cl)C2CC2)c1F [compound 66] | 0% | 28% | 97% | 94% |  |
| Cn1nc(C(F)F)c(C(=O)N(Cc2ccc(-n3cnc(C(F)(F)F)n3)cc2Cl)C2CC2)c1F [compound 67] | 0% | 0% | 0% | 99% |  |
| Cn1nc(C(F)F)c(C(=O)N(Cc2ccc(-n3ccc(C(F)(F)F)n3)cc2F)C2CC2)c1F [compound 68] | 99% | 91% | 100% | 97% |  |
| Cn1cc(C(=O)N(Cc2c(F)cc(-n3ccc(C(F)(F)F)n3)cc2F)C2CC2)c(C(F)F)n1 [compound 71] | 91% | 0% | 92% | 99% |  |
| CC(c1ccc(-n2ccc(C(F)(F)F)n2)cc1Cl)N(C(=O)c1c(C(F)F)nn(C)c1F)C1CC1 (stereo not shown) [compound 72] | 99% | 99% | 100% | 100% |  |
| Cc1ccc(-n2ccc(C(F)(F)F)n2)cc1CN(C(=O)c1c(C(F)F)nn(C)c1F)C1CC1 [compound 84] |  |  |  |  | Test E rating (% disease control) [1, 6]: 94%; Test D rating (% disease control) [2, 6]: 89%; Test B rating (% disease control) [3, 6]: 100%; Test C rating (% disease control) [4, 6]: 98% |
| Cn1nc(C(F)F)c(C(=O)N(Cc2cc(-n3ccc(C(F)(F)F)n3)ccc2Cl)C2CC2)c1F [compound 86] |  |  |  |  | Test E rating (% disease control) [1, 6]: 95%; Test D rating (% disease control) [2, 6]: 68%; Test B rating (% disease control) [3, 6]: 100%; Test C rating (% disease control) [4, 6]: 99% |
| Cn1nc(C(F)F)c(C(=O)N(Cc2ccc(-n3ccc(C(F)(F)F)n3)c(Br)c2)C2CC2)c1F [compound 98] |  |  |  |  | Test E rating (% disease control) [1, 7]: 84%; Test D rating (% disease control) [2, 7]: 86%; Test B rating (% disease control) [3, 7]: 64%; Test C rating (% disease control) [4, 7]: 94% |
| Cn1nc(C(F)F)c(C(=O)N(Cc2ccc(-n3ccc(C(F)(F)F)n3)c(Cl)c2)C2CC2)c1F [compound 99] |  |  |  |  | Test E rating (% disease control) [1, 7]: 89%; Test D rating (% disease control) [2, 7]: 97%; Test B rating (% disease control) [3, 7]: 59%; Test C rating (% disease control) [4, 7]: 96% |
| Cn1cc(C(=O)N(Cc2ccnc(-n3ccc(C(F)(F)F)n3)c2Cl)C2CC2)c(C(F)F)n1 [compound 100] |  |  |  |  | Test E rating (% disease control) [1, 7]: 0%; Test D rating (% disease control) [2, 7]: 0%; Test B rating (% disease control) [3, 7]: 0%; Test C rating (% disease control) [4, 7]: 6% |
| Cc1cc(-n2ccc(C(F)(F)F)n2)ccc1CN(C(=O)c1c(C(F)F)nn(C)c1F)C1CC1 [compound 105] | 98% | 99% | 100% | 98% |  |
| Cn1nc(C(F)F)c(C(=O)N(Cc2ccc(-n3ccc(C(F)(F)F)n3)cc2Br)C2CC2)c1F [compound 106] | 97% | 99% | 100% | 96% |  |

| Compound | Test E rating (% disease control) [1, 5] | Test D rating (% disease control) [2, 5] | Test B rating (% disease control) [3, 5] | Test C rating (% disease control) [4, 5] | also measured |
| --- | --- | --- | --- | --- | --- |
| CC(c1cc(-n2ccc(C(F)(F)F)n2)ccc1Cl)N(C(=O)c1cn(C)nc1C(F)F)C1CC1 (stereo not shown) [compound 119] | 92% | 93% | 99% | 92% |  |
| CC(C)c1cc(-n2ccc(C(F)(F)F)n2)ccc1CN(C(=O)c1c(C(F)F)nn(C)c1F)C1CC1 [compound 121] | 99% | 100% | 100% | 95% |  |
| Cc1cc(-n2ccc(C(F)(F)F)n2)cnc1CN(C(=O)c1cn(C)nc1C(F)F)C1CC1 [compound 124] | 73% | 0% | 0% | 94% |  |
| Cn1nc(C(F)F)c(C(=O)N(Cc2c(Cl)cc(-n3cccn3)cc2Cl)C2CC2)c1F [compound 125] | 92% | 100% | 100% | 99% |  |
| CC(c1ccc(Cl)c(-n2ccc(C(F)(F)F)n2)c1)N(C(=O)c1cn(C)nc1C(F)F)C1CC1 (stereo not shown) [compound 126] | 48% | 68% | 92% | 92% |  |
| Cn1nc(C(F)F)c(C(=O)N(Cc2c(Cl)cc(-n3ccc(C(F)(F)F)n3)cc2Cl)C2CC2)c1F [compound 127] | 98% | 100% | 100% | 99% |  |
| CC(c1cc(-n2ccc(C(F)(F)F)n2)ccc1Br)N(C(=O)c1cn(C)nc1C(F)F)C1CC1 (stereo not shown) [compound 128] | 93% | 0% | 100% | 92% |  |
| CC(c1cc(-n2ccc(C(F)(F)F)n2)ccc1[N+](=O)[O-])N(C(=O)c1cn(C)nc1C(F)F)C1CC1 (stereo not shown) [compound 129] | 0% | 0% | 0% | 10% |  |
| CC(c1cc(-n2ccc(C(F)(F)F)n2)ccc1OC(F)(F)F)N(C(=O)c1cn(C)nc1C(F)F)C1CC1 (stereo not shown) [compound 130] | 72% | 68% | 93% | 28% |  |
| Cn1nc(C(F)F)c(C(=O)N(Cc2c(Cl)cc(-n3ccc(Br)n3)cc2Cl)C2CC2)c1F [compound 132] | 91% | 100% | 100% | 99% |  |
| CC(c1cc(-n2ccc(C(F)(F)F)n2)ccc1OC(F)(F)F)N(C(=O)c1c(C(F)F)nn(C)c1F)C1CC1 (stereo not shown) [compound 133] |  |  |  |  | Test E rating (% disease control) [1, 6]: 94%; Test D rating (% disease control) [2, 6]: 68%; Test B rating (% disease control) [3, 6]: 100%; Test C rating (% disease control) [4, 6]: 92% |
| CC(c1cc(-n2ccc(C(F)(F)F)n2)ccc1[N+](=O)[O-])N(C(=O)c1c(C(F)F)nn(C)c1F)C1CC1 (stereo not shown) [compound 134] |  |  |  |  | Test E rating (% disease control) [1, 6]: 0%; Test D rating (% disease control) [2, 6]: 68%; Test B rating (% disease control) [3, 6]: 94%; Test C rating (% disease control) [4, 6]: 43% |
| CC(c1cc(-n2ccc(C(F)(F)F)n2)ccc1Cl)N(C(=O)c1c(C(F)F)nn(C)c1F)C1CC1 (stereo not shown) [compound 135] |  |  |  |  | Test E rating (% disease control) [1, 6]: 95%; Test D rating (% disease control) [2, 6]: 80%; Test B rating (% disease control) [3, 6]: 100%; Test C rating (% disease control) [4, 6]: 99% |
| COc1ccc(-n2ccc(C(F)(F)F)n2)cc1C(C)N(C(=O)c1c(C(F)F)nn(C)c1F)C1CC1 (stereo not shown) [compound 142] |  |  |  |  | Test E rating (% disease control) [1, 6]: 98%; Test D rating (% disease control) [2, 6]: 83%; Test B rating (% disease control) [3, 6]: 100%; Test C rating (% disease control) [4, 6]: 97% |
| Cn1nc(C(F)F)c(C(=O)N(Cc2ccc(-n3cc(Cl)cn3)cc2Cl)C2CC2)c1F [compound 143] | 99% | 99% | 100% | 99% |  |
